# Values of other authors in patent US20060074053A1, “Ophthalmic solution containing quinolone antimicrobial compound” (SANTEN PHARMACEUTICAL CO., LTD., priority 2003, published 2006).
# Conditions: after instillation of ciprofloxacin-containing ophthalmic solution; Am. J. Ophthalmol., 117, pp 258-259 (1994)
smiles,measurement,value
O=C(O)c1cn(C2CC2)c2cc(N3CCNCC3)c(F)cc2c1=O [ciprofloxacin],precipitate on the surface of the eyes after instillation,liberated as a precipitate on the surface of the eyes (corneal epithelium)
